{"source": "paper PMC4599007", "about": "“The GH130 Family of Mannoside Phosphorylases Contains Glycoside Hydrolases That Target β-1,2-Mannosidic Linkages in Candida Mannan” (The Journal of Biological Chemistry, 2015)", "target": "T1, BT3780 (Bacteroides thetaiotaomicron, UniProt Q8A186)", "T1 construct": "gene BT_3780; signal peptide residues 1-16; residues 17-384 built in crystal (C-terminal Pro printed as 383); monomer", "T1 sequence (Q8A186 17-383)": "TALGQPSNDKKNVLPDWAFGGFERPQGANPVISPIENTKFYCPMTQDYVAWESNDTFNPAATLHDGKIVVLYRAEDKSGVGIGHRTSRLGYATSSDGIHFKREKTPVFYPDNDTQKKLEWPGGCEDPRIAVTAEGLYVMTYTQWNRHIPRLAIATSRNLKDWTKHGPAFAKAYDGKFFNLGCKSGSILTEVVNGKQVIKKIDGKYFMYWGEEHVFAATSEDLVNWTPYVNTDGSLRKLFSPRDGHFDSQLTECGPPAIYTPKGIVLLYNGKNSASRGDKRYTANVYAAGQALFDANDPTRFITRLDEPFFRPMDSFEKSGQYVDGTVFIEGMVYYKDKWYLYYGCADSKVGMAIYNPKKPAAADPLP", "assay": "X-ray crystal structure, […] Å", "type": "binding", "conditions": "0.3 M mannose in crystallisation; bound in -1 and +1 subsites of the active site"}
{"smiles": "OC[C@H]1OC(O)[C@@H](O)[C@@H](O)[C@@H]1O", "note": "(stereo partly shown) [mannose]", "values": [{"measurement": "X-ray crystal structure, 1.35 Å", "result": "The pocket houses two mannose residues (the crystal structure of BT3780 was obtained in the presence"}]}
